# Measurements reported in ChEMBL document CHEMBL1121535, “Stereochemical requirements for cannabinoid activity” (J Med Chem, 1980).
# Calls of active or inactive are those of the source. The calls are words filed in the database; no cut-off is given here.
# Assays:
# Format in all cases: functional, organism-based
# Details in all cases: Cercopithecidae
# Monkey [1] = test: The compound was evaluated for the rating of psychotropic effects in rhesus monkey at a dose of 1 mg/Kg; value is (-) No change
# Monkey [2] = test: The compound was evaluated for the rating of psychotropic effects in rhesus monkey at a dose of 2 mg/Kg; value is (+) drowsiness, decreased motor activity, occasional partial ptosis, occasional head drop
# Monkey [3] = test: The compound was evaluated for the rating of psychotropic effects in rhesus monkey at a dose of 0.5 mg/Kg; value is (++) stupor, ataxia, suppression of motor activity, full ptosis
# Monkey [4] = test: The compound was evaluated for the rating of psychotropic effects in rhesus monkey at a dose of 0.1 mg/Kg; value is (+/-) tranquility
# Monkey [5] = test: The compound was evaluated for the rating of psychotropic effects in rhesus monkey at a dose of 1 mg/Kg; value is (++) stupor, ataxia, suppression of motor activity, full ptosis
# Monkey [6] = test: The compound was evaluated for the rating of psychotropic effects in rhesus monkey at a dose of 2 mg/Kg; value is (++) stupor, ataxia, suppression of motor activity, full ptosis
# Monkey [7] = test: The compound was evaluated for the rating of psychotropic effects in rhesus monkey at a dose of 0.5 mg/Kg; value is (+) drowsiness, decreased motor activity, occasional partial ptosis, occasional head drop
# Monkey [8] = test: The compound was evaluated for the rating of psychotropic effects in rhesus monkey at a dose of 0.25 mg/Kg; value is (++) stupor, ataxia, suppression of motor activity, full ptosis
# Monkey [9] = test: The compound was evaluated for the rating of psychotropic effects in rhesus monkey at a dose of 0.05 mg/Kg; value is (-) No change
# Monkey [10] = test: The compound was evaluated for the rating of psychotropic effects in rhesus monkey at a dose of 0.1 mg/Kg; value is (++) stupor, ataxia, suppression of motor activity, full ptosis
# Monkey [11] = test: The compound was evaluated for the rating of psychotropic effects in rhesus monkey at a dose of 0.25 mg/Kg; value is (-) No change
# Monkey [12] = test: The compound was evaluated for the rating of psychotropic effects in rhesus monkey at a dose of 5 mg/Kg; value is (-) No change
# Monkey [13] = test: The compound was evaluated for the rating of psychotropic effects in rhesus monkey at a dose of 2 mg/Kg; value is (-) No change
# Monkey [14] = test: The compound was evaluated for the rating of psychotropic effects in rhesus monkey at a dose of 5 mg/Kg; value is (+) drowsiness, decreased motor activity, occasional partial ptosis, occasional head drop
smiles,measurement,setting,value
CCCCCc1cc(O)c2c(c1)OC(C)(C)[C@@H]1CC[C@H](C)CC21 (stereo not given in full),Activity,Monkey [1],inactive
same,Activity,Monkey [2],"drowsiness, decreased motor activity, occasional partial ptosis, occasional head drop"
CCCCCc1cc(O)c2c(c1)OC(C)(C)[C@@H]1CC[C@@H](C)CC21 (stereo not given in full),Activity,Monkey [3],"stupor,ataxia, suppression of motor activity, full ptosis"
same,Activity,Monkey [4],+/-
CCCCCc1cc(O)c2c(c1)OC(C)(C)[C@@H]1CC[C@H](C)[C@H](O)C21 (stereo not given in full),Activity,Monkey [5],"drowsiness, decreased motor activity, occasional partial ptosis, occasional head drop"
same,Activity,Monkey [6],"drowsiness, decreased motor activity, occasional partial ptosis, occasional head drop"
same,Activity,Monkey [7],"drowsiness, decreased motor activity, occasional partial ptosis, occasional head drop"
CCCCCc1cc(O)c2c(c1)OC(C)(C)[C@@H]1CC=C(C)CC21 (stereo not given in full),Activity,Monkey [3],Active
same,Activity,Monkey [4],inactive
same,Activity,Monkey [8],Active
CCCCCc1cc(O)c2c(c1)OC(C)(C)[C@@H]1CCC(C)=C[C@@H]21,Activity,Monkey [9],inactive
same,Activity,Monkey [10],Active
same,Activity,Monkey [8],Active
CCCCCc1cc(O)c2c(c1)OC(C)(C)[C@@H]1C[C@H](O)[C@H](C)CC21 (stereo not given in full),Activity,Monkey [5],"drowsiness, decreased motor activity, occasional partialptosis,occasional head drop"
same,Activity,Monkey [11],inactive
same,Activity,Monkey [7],"drowsiness, decreased motor activity, occasional partialptosis,occasional head drop"
CCCCCc1cc(O)c2c(c1)OC(C)(C)[C@@H]1CC(O)[C@H](C)CC21 (stereo not given in full),Activity,Monkey [1],inactive
same,Activity,Monkey [12],inactive
CCCCCc1cc(OC(C)=O)c2c(c1)OC(C)(C)[C@@H]1CCC(COC(C)=O)CC21 (stereo not given in full),Activity,Monkey [5],"drowsiness, decreased motor activity, occasional partial ptosis, occasional head drop"
same,Activity,Monkey [7],"drowsiness, decreased motor activity, occasional partial ptosis, occasional head drop"
CCCCCc1cc(O)c2c(c1)OC(C)(C)[C@@H]1CCC(C)[C@H](O)C21 (stereo not given in full),Activity,Monkey [1],inactive
same,Activity,Monkey [13],inactive
same,Activity,Monkey [14],"drowsiness, decreased motor activity, occasional partial ptosis, occasional head drop"
CCCCCc1cc(OC(C)=O)c2c(c1)OC(C)(C)[C@@H]1CC[C@H](COC(C)=O)CC21 (stereo not given in full),Activity,Monkey [1],inactive
same,Activity,Monkey [12],inactive
CCCCCc1cc(O)c2c(c1)OC(C)(C)[C@@H]1CC[C@H](C)C(O)C21 (stereo not given in full),Activity,Monkey [1],inactive
same,Activity,Monkey [12],inactive
CCCCCc1cc(O)c2c(c1)OC(C)(C)[C@@H]1C[C@H](O)C(C)CC21 (stereo not given in full),Activity,Monkey [1],inactive
same,Activity,Monkey [13],inactive
same,Activity,Monkey [12],inactive
